Assay results as given in US10765114B2, “4-amino-6-(pyridyl and 2-substitutedphenyl)-picolinates and 6-amino-2-(pyridyl and 2-substitutedphenyl)-pyrimidine-4-carboxylates and their use as herbicides” (Dow AgroSciences LLC, priority 2013, dated 2020).
Like-named read-outs stand apart in the source and are kept apart here.

Key:
[1] = system: Key Broadleaf Weed and Crop Species; experiment: Post-Emergent Test II (Table 5); format: in vivo; conditions: post-emergence, 336 h; for pest or weed control at 70 g/ha: application rate 70 (kg ai/ha; footnote: g ai/ha); for pest or weed control at 140 g/ha: application rate 140 (kg ai/ha; footnote: g ai/ha)
How it was run: (§1)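 Plants grown in a greenhouse (~15 h photoperiod, 23-29° C day) to first or second true leaf stage were sprayed post-emergence at 187 L/ha with compound in acetone/DMSO-based aqueous spray containing crop oil concentrate and surfactant, applied at a high rate plus ½× to 1/16× serial rates. Injury was scored visually 14 days later, 0-100% versus untreated plants.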

[2] = system: Key Grass and Sedge Weeds as well as Grass Crops; experiment: Post-Emergent Test II (Table 6); format: in vivo; conditions: post-emergence, 336 h, 14 days after application; for pest or weed control at 70 g/ha: 70 g ai/ha; for pest or weed control at 140 g/ha: 140 g ai/ha
How it was run: as §1

[3] = Abutilon theophrasti, ABUTH: velvetleaf (Abutilon theophrasti), read-out: Visual Growth Reduction (%) 14 Days After Application ABUTH
[4] = Amaranthus retroflexus, AMARE: redroot pigweed (Amaranthus retroflexus), read-out: Visual Growth Reduction (%) 14 Days After Application AMARE
[5] = Brassica napus, BRSSS: oilseed rape, canola (Brassica napus), read-out: Visual Growth Reduction (%) 14 Days After Application BRSSS
[6] = Chenopodium album, CHEAL: lambsquarters (Chenopodium album), read-out: Visual Growth Reduction (%) 14 Days After Application CHEAL
[7] = Euphorbia heterophylla, EPHHL: wild poinsettia (Euphorbia heterophylla), read-out: Visual Growth Reduction (%) 14 Days After Application EPHHL
[8] = Helianthus annuus, HELAN: sunflower (Helianthus annuus), read-out: Visual Growth Reduction (%) 14 Days After Application HELAN
[9] = Viola tricolor, VIOTR: wild pansy (Viola tricolor), read-out: Visual Growth Reduction (%) 14 Days After Application VIOTR
[10] = CYPSS, read-out: Visual Growth Reduction (%) 14 Days After Application CYPSS
[11] = DIGSA: crabgrass (Digitaria sanguinalis), read-out: Visual Growth Reduction (%) 14 Days After Application DIGSA
[12] = ECHSS, read-out: Visual Growth Reduction (%) 14 Days After Application ECHSS
[13] = ORYSS (crop), read-out: Visual Growth Reduction (%) 14 Days After Application ORYSS
[14] = SETFA: giant foxtail (Setaria faberi), read-out: Visual Growth Reduction (%) 14 Days After Application SETFA
[15] = SORVU: grain sorghum (Sorghum vulgare), read-out: Visual Growth Reduction (%) 14 Days After Application SORVU
[16] = TRZSS (crop), read-out: Visual Growth Reduction (%) 14 Days After Application TRZSS
[17] = ZEAMX: maize, corn (Zea mays), read-out: Visual Growth Reduction (%) 14 Days After Application ZEAMX

SMILES	pest or weed control at 70 g/ha [1, 3]	pest or weed control at 140 g/ha [1, 3]	pest or weed control at 70 g/ha [1, 4]	pest or weed control at 140 g/ha [1, 4]	pest or weed control at 70 g/ha [1, 5]	pest or weed control at 140 g/ha [1, 5]	pest or weed control at 70 g/ha [1, 6]	pest or weed control at 140 g/ha [1, 6]	pest or weed control at 70 g/ha [1, 7]	pest or weed control at 140 g/ha [1, 7]	pest or weed control at 70 g/ha [1, 8]	pest or weed control at 140 g/ha [1, 8]	pest or weed control at 70 g/ha [1, 9]	pest or weed control at 140 g/ha [1, 9]	pest or weed control at 70 g/ha [2, 10]	pest or weed control at 140 g/ha [2, 10]	pest or weed control at 70 g/ha [2, 11]	pest or weed control at 140 g/ha [2, 11]	pest or weed control at 70 g/ha [2, 12]	pest or weed control at 140 g/ha [2, 12]	further results
Nc1c(F)c(-c2ccc(C(F)(F)F)nc2)nc(C(=O)O)c1Cl [Compound 46, 4-amino-5-chloro-3-fluoro-6′-(trifluoromethyl)-[2,3′-bipyridine]-6-carboxylic acid]	85 to 94%	95 to 100%	95 to 100%	95 to 100%	95 to 100%	95 to 100%	95 to 100%	95 to 100%	95 to 100%	95 to 100%	95 to 100%	95 to 100%	85 to 94%	95 to 100%	95 to 100%	95 to 100%	95 to 100%	95 to 100%	95 to 100%	95 to 100%	pest or weed control at 70 g/ha [2, 13]: 75 to 84%; pest or weed control at 140 g/ha [2, 13]: 95 to 100%; pest or weed control at 70 g/ha [2, 14]: 95 to 100%; pest or weed control at 140 g/ha [2, 14]: 95 to 100%; pest or weed control at 70 g/ha [2, 15]: 85 to 94%; pest or weed control at 140 g/ha [2, 15]: 85 to 94%; pest or weed control at 70 g/ha [2, 16]: 75 to 84%; pest or weed control at 140 g/ha [2, 16]: 85 to 94%; pest or weed control at 70 g/ha [2, 17]: 85 to 94%; pest or weed control at 140 g/ha [2, 17]: 85 to 94%; melting point: 164 °C
Cc1c(-c2cc(N)c(Cl)c(C(=O)O)n2)ccc(Cl)c1F [Compound 52]	95 to 100%	95 to 100%	95 to 100%	95 to 100%	95 to 100%	95 to 100%	95 to 100%	95 to 100%	75 to 84%	85 to 94%	95 to 100%	95 to 100%	85 to 94%	85 to 94%	85 to 94%	95 to 100%	0 to 29%	30 to 44%	30 to 44%	45 to 59%	pest or weed control at 70 g/ha [2, 13]: 0 to 29%; pest or weed control at 140 g/ha [2, 13]: 0 to 29%; pest or weed control at 70 g/ha [2, 14]: 0 to 29%; pest or weed control at 140 g/ha [2, 14]: 45 to 59%; pest or weed control at 70 g/ha [2, 15]: 0 to 29%; pest or weed control at 140 g/ha [2, 15]: 30 to 44%; pest or weed control at 70 g/ha [2, 16]: 45 to 59%; pest or weed control at 140 g/ha [2, 16]: 60 to 74%; pest or weed control at 70 g/ha [2, 17]: 45 to 59%; pest or weed control at 140 g/ha [2, 17]: 60 to 74%; melting point: 160 to 162 °C
COc1nc(C(F)(F)F)ccc1-c1cc(N)c(Cl)c(C(=O)O)n1 [Compound 65]	0 to 29%	0 to 29%	85 to 94%	85 to 94%	0 to 29%	0 to 29%	0 to 29%	0 to 29%	0 to 29%	0 to 29%	45 to 59%	45 to 59%	0 to 29%	0 to 29%	0 to 29%	0 to 29%	0 to 29%	0 to 29%	0 to 29%	0 to 29%	pest or weed control at 70 g/ha [2, 13]: 0 to 29%; pest or weed control at 140 g/ha [2, 13]: 0 to 29%; pest or weed control at 70 g/ha [2, 14]: 0 to 29%; pest or weed control at 140 g/ha [2, 14]: 0 to 29%; pest or weed control at 70 g/ha [2, 15]: 0 to 29%; pest or weed control at 140 g/ha [2, 15]: 0 to 29%; pest or weed control at 70 g/ha [2, 16]: 0 to 29%; pest or weed control at 140 g/ha [2, 16]: 0 to 29%; pest or weed control at 70 g/ha [2, 17]: 0 to 29%; pest or weed control at 140 g/ha [2, 17]: 0 to 29%; melting point: 169 to 171 °C
